According to patent US20240382629A1, “HETEROBIVALENT AND HOMOBIVALENT AGENTS TARGETING FIBROBLAST ACTIVATION PROTEIN ALPHA AND/OR PROSTATE-SPECIFIC MEMBRANE ANTIGEN” (The Johns Hopkins University, priority 2021, published 2024):
Each block holds one compound with its values, some of them ahead of it.

Test system: U87 tumor
Experiment: PET imaging and tissue biodistribution in U87 tumor-bearing mice
Format: in vivo, mouse
Experimental: Cell uptake assays, flow cytometry, and IHC were performed as described previously. Banerjee et al., 2019; Nimmagadda et al., 2018. PET imaging and biodistribution Sequential PET imaging and biodistribution studies were conducted to quantify and validate PET imaging data. Briefly, tumor-bearing mice were administrated approximately 7.4 MBq of radiotracer in 150 μL saline via tail-vein injection. They were randomized into the indicated groups of 3-4 mice before radiotracer injection.
In Experiment 1, bilateral xenografts of U87 (right flank) and PSMA+ PC3 PIP (left flank) tumors were established in male NSG mice (n=3), which underwent imaging followed by biodistribution over 24 h. […] A biodistribution study was further conducted with U87 tumors at 2 h post-injection (n=3) to compare the tissue distribution properties of ^64Cu-FP-L1 and ^64Cu-FAPI-04.

[1] = 2 h + 10 nmol Sri-06-98, dose 200 μCi, n=3, in %ID/g
[2] = 2 h, dose 200 μCi, n=3, in %ID/g
[3] = 4 h, dose 200 μCi, n=3, in %ID/g
[4] = head-to-head, 1 h, dose 20 μCi, n=5/group (FAPI-04 n = 3)

Biodistribution: Bladder [1]: 5.61 ± 7.96
Biodistribution: Blood [1]: 0.27 ± 0.08
Biodistribution: Bone [1]: 0.59 ± 0.65
Biodistribution: Fat [1]: 0.07 ± 0.02
Biodistribution: Heart [1]: 0.17 ± 0.01
Biodistribution: Kidney [1]: 1.57 ± 0.00
Biodistribution: Lacrimal gland [1]: 0.16 ± 0.02
Biodistribution: Liver [1]: 0.68 ± 0.16
Biodistribution: Lung [1]: 0.49 ± 0.01
Biodistribution: Muscle [1]: 0.09 ± 0.02
Biodistribution: Pancreas [1]: 0.21 ± 0.04
Biodistribution: Salivary Glands [1]: 0.34 ± 0.02
Biodistribution: Small Intestine [1]: 0.54 ± 0.08
Biodistribution: Spleen [1]: 0.25 ± 0.01
Biodistribution: Stomach [1]: 0.31 ± 0.02
Biodistribution: U87 [1]: 2.70 ± 1.00
Biodistribution: Bladder [2]: 1.63 ± 0.23
Biodistribution: Blood [2]: 3.49 ± 0.18
Biodistribution: Bone [2]: 2.91 ± 0.36
Biodistribution: Fat [2]: 0.47 ± 0.02
Biodistribution: Heart [2]: 3.70 ± 0.22
Biodistribution: Kidney [2]: 2.00 ± 0.52
Biodistribution: Lacrimal gland [2]: 5.07 ± 2.20
Biodistribution: Liver [2]: 2.80 ± 0.31
Biodistribution: Lung [2]: 2.62 ± 0.11
Biodistribution: Muscle [2]: 2.46 ± 0.20
Biodistribution: Pancreas [2]: 4.59 ± 2.38
Biodistribution: Salivary Glands [2]: 8.88 ± 1.37
Biodistribution: Small Intestine [2]: 2.97 ± 0.33
Biodistribution: Spleen [2]: 1.51 ± 0.14
Biodistribution: Stomach [2]: 2.09 ± 1.00
Biodistribution: U87 [2]: 7.64 ± 2.12
Biodistribution: Bladder [3]: 5.56 ± 1.53
Biodistribution: Blood [3]: 2.54 ± 0.37
Biodistribution: Bone [3]: 2.69 ± 0.14
Biodistribution: Fat [3]: 0.50 ± 0.12
Biodistribution: Heart [3]: 2.40 ± 0.12
Biodistribution: Kidney [3]: 1.67 ± 0.03
Biodistribution: Lacrimal gland [3]: 4.54 ± 0.44
Biodistribution: Liver [3]: 2.68 ± 0.08
Biodistribution: Lung [3]: 2.04 ± 0.10
Biodistribution: Muscle [3]: 2.13 ± 0.14
Biodistribution: Pancreas [3]: 4.54 ± 0.62
Biodistribution: Salivary Glands [3]: 5.92 ± 0.57
Biodistribution: Small Intestine [3]: 2.69 ± 0.42
Biodistribution: Spleen [3]: 1.14 ± 0.16
Biodistribution: Stomach [3]: 1.60 ± 0.36
Biodistribution: U87 [3]: 11.15 ± 1.49
SMILES: N#C[C@@H]1CCCN1C(=O)CNC(=O)c1ccnc2ccc(OCCCNC(=O)CCc3cn(CCCC[C@H](NC(=O)CN4CCN(CC(=O)O)CCN(CC(=O)O)CC4)C(=O)NCCCOc4ccc5nccc(C(=O)NCC(=O)N6CCC[C@H]6C#N)c5c4)nn3)cc12 [^64Cu-Sri-06-98, metal not drawn]

Biodistribution: Bladder [4]: 5.55 ± 4.26 % ID/g
Biodistribution: Blood [4]: 2.54 ± 0.90 % ID/g
Biodistribution: Bone [4]: 2.84 ± 0.83 % ID/g
Biodistribution: Fat [4]: 0.31 ± 0.08 % ID/g
Biodistribution: Heart [4]: 1.04 ± 0.28 % ID/g
Biodistribution: Kidney [4]: 4.00 ± 1.28 % ID/g
Biodistribution: Lacrimal gland [4]: 3.53 ± 2.93 % ID/g
Biodistribution: Liver [4]: 1.97 ± 0.36 % ID/g
Biodistribution: Lung [4]: 2.02 ± 0.93 % ID/g
Biodistribution: Muscle [4]: 1.65 ± 1.10 % ID/g
Biodistribution: Pancreas [4]: 1.89 ± 0.57 % ID/g
Biodistribution: Salivary Gland [4]: 2.77 ± 0.53 % ID/g
Biodistribution: Small Intestine [4]: 3.15 ± 1.34 % ID/g
Biodistribution: Spleen [4]: 1.13 ± 0.42 % ID/g
Biodistribution: Stomach [4]: 1.26 ± 0.45 % ID/g
Biodistribution: U87 [4]: 6.55 ± 1.41 % ID/g
SMILES: N#CC1CCCN1C(=O)CNC(=O)c1ccnc2ccc(OCCCN3CC4CN(C(=O)CN5CCN(CC(=O)O)CCN(CC(=O)O)CC5)CC4C3)cc12 (stereo not shown) [^64Cu-Sri-07-86, metal not drawn]
